Source: patent publication US20210322622A1, “COMPOSITIONS AND METHODS FOR PREPARATION OF COMPOSITE POLYMER FILMS ON NON-CONDUCTING SUBSTRATES, INCLUDING BANDAGES, AND THEIR USE FOR TREATING WOUNDS” (The Johns Hopkins University, priority 2018, published 2021)

How the values were obtained:
[1] = test system: S. aureus bioluminescent strain Xen36; test: Mouse model of prosthetic joint infection (PJI): in vivo bioluminescence imaging and CFU; parameters: species or system mice; details: intravenous prophylaxis 110 mg/kg at −1 and 16 hours
Text: A previously established mouse model of a prosthetic joint infection (PJI) (Pribaz et al., 2012) was used to evaluate the efficiencies of the composite coatings in providing sustained in situ release and in vivo antimicrobial activity (FIG. 5A, FIG. 5B, FIG. 5C, FIG. 5D, FIG. 5E, FIG. 5F, FIG. 5G, FIG. 5H, FIG. 5I, FIG. 5J, FIG. 5K, and FIG. 5L). A medical-grade titanium K-wire (0.5 mm in diameter, 9 mm in length) coated with PLGA/PCL fiber coating ± antibiotics was surgically placed into the right distal femur of mice. Briefly, a medial parapatellar arthrotomy on the right knee was performed with lateral displacement of the quadriceps-patellar complex. […]
Noninvasive and longitudinal measurements of the bacterial burden were performed using in vivo bioluminescence imaging of the bioluminescent signals from live and actively metabolizing Xen36 bacteria at the site of infection in the post-operative knee joints of anesthetized mice over a 2-week course of infection using the IVIS Lumina III in vivo imaging system (PerkinElmer) on days 0, 1, 3, 5, 7, and 14. Data are presented on a color scale overlaid on a grayscale photograph of mice and quantified as maximum radiance (photons/second/cm^2/steradian) within a circular region of interest (1×10^3 pixels) using Living Image software. […]

[2] = test system: S. aureus strain Xen36; test: MIC of XEN36 for each antibiotic; format: cell-based, Staphylococcus aureus; details: Staphylococcus aureus, XEN36, read-out: MIC of XEN36
Experimental: S. aureus strain Xen36 (PerkinElmer, Waltham, Mass.) previously derived from the clinical bacteremia isolate ATCC 49525 (Wright) was used in all experiments. (Francis et al., 2000). […] (Francis et al., 2000). Xen36 was prepared for inoculation as previously described. (Niska et al., 2013; Pribaz et al. (2012)).

[3] = test system: S. aureus; test: In vitro zone of inhibition assay of coated K-wires; format: cell-based, Staphylococcus aureus; details: 6 weeks room temperature, 6 weeks −20° C., 8 months
Text: A zone of inhibition assay was used as an additional assay to evaluate the in vitro release of antibiotic(s) from the composite coating. Tryptic soy agar bacterial plates were inoculated with S. aureus bacteria cells to yield a bacterial lawn after overnight culture. After bacterial inoculation and before culturing the plates, two identical titanium K-wires loaded with either 10 w/w % Lin, 10 w/w % Van, or 10 w/w % Dap alone, or in combination with Rif were placed in two separate areas on the plate. After culturing the plates at 37° C. for 24 hours, the antimicrobial activity of the eluded antibiotic(s) into the agar was measured as a zone of inhibition (diameter [mm]) of the bacterial growth around the K-wire.
Long-term efficacy of the antimicrobial activity was tested by storing electrospun pins at room temperature for 6 weeks, −20° C. for 6 weeks, and −80° C. for 8 months. Coated pins were protected from light during storage. These pins were then used in the same zone of inhibition assay as described hereinabove. These antimicrobial results were further confirmed with a two-week in vitro release study to determine release kinetics after storage.
Tryptic soy agar (TSA) bacterial plates were inoculated with S. aureus to yield a bacterial lawn after overnight culture. Before culturing the plates, two titanium K-wires each loaded with the same combination of antibiotics from each set were placed in two separate areas on the plate. After culturing at 37° C. for 24 hours, the zone of inhibition (ZOI) (diameter/mm) of bacterial growth were measured.

[4] = In vitro release of antibiotics from PLGA/PCL composite coatings on titanium K-wires (HPLC); format: physicochemical; details: stored coated pins, two-week in vitro release
Experimental: The release rate of the polymer composite film was measured by HPLC. Drug release studies were conducted using coated pins created with the same loading parameters as those used for later in vivo testing (10% (w/w) drug combinations) electrospun for 60 seconds at injection rates of 0.5 mL/h from each needle. Release rate of antibiotics from the composite polymer coating was characterized by placing coated pins in 200 μL pH 7.4 PBS buffer and incubating at 37° C. in an aluminum film-covered incubator to prevent possible light-induced drug degradation. Release media was changed at fixed time points over a period of two weeks and stored in a −20° C. freezer until analysis. Drug concentrations in release media for each day were determined via reverse-phase HPLC using a C-18 column in an Alliance HPLC system and Waters 2996 PDA detector. The mobile phase was a mixture of acetonitrile and water both mixed with 0.1% TFA acid, which was run at a gradient from (15%/85%) to (40%/60%) for a total runtime of 15 minutes per sample for the elution of Van/Rif and Lin/Rif drug loading groups. Elution of the Dap/Rif loading group was conducted using a mobile phase of (49%/51%) of acetonitrile and water both mixed with 0.1% TFA acid for a total run time of 11 minutes per sample. Concentrations of the drugs were quantified using wavelengths of 343 nm for Rif, 254 nm for Lin, 280 nm for Van and 223 nm for Dap using prepared standard curves for all three drugs. […] Quantification was performed through the derivatization of Gentamicin with ninhydrin at 95° C. for 15 minutes and detection with a Biotek Synergy2 plate reader.
Long-term efficacy of the antimicrobial activity was tested by storing electrospun pins at room temperature for 6 weeks, −20° C. for 6 weeks, and −80° C. for 8 months. Coated pins were protected from light during storage. These pins were then used in the same zone of inhibition assay as described hereinabove.
Drug release studies were conducted using coated pins created with the same loading parameters as detailed above. Release kinetics of antibiotics from the composite coating were characterized by placing coated pins in 200 μL of phosphate buffer saline (PBS, pH 7.4) at 37° C. Release media was changed daily over a period of two weeks and stored at −20° C. until analysis. Drug concentrations in release media were measured on days 1, 2, 3, 5, 7, 10 and 14 using a Waters Alliance 2690 HPLC system (Waters Corporation, Milford, Mass.) equipped with an Accucore RP-MS C18 column (100 mm×2.1 mm; Thermo Fisher Scientific) and a Waters 2996 PDA detector. The elution was carried out with a mobile phase of water and acetonitrile both mixed with 0.1% TFA at a flow rate of 1 mL/min at ambient temperature using a linear gradient elution program of 85% water to […] in 15 minutes. Concentrations of the drugs were quantified using wavelengths for Van (280 nm), Lin (254 nm), Dap (224 nm) and Rif (263 nm).

SMILES: CN[C@H](CC(C)C)C(=O)N[C@H]1C(=O)N[C@@H](CC(N)=O)C(=O)N[C@H]2C(=O)N[C@H]3C(=O)N[C@H](C(=O)N[C@H](C(=O)O)c4cc(O)cc(O)c4-c4cc3ccc4O)[C@H](O)c3ccc(c(Cl)c3)Oc3cc2cc(c3O[C@@H]2O[C@H](CO)[C@@H](O)[C@H](O)[C@H]2O[C@H]2C[C@](C)(N)[C@H](O)[C@H](C)O2)Oc2ccc(cc2Cl)[C@H]1O [Van, vancomycin]
- BLI signals [1]: decreased BLI signals
- CFU from bone/joint tissue and implants [1]: the infection was not cleared as CFU were readily detected
- MIC [2]: 0.5 µg/mL
- antimicrobial activity (zone of inhibition) after storage versus freshly prepared coatings [3]: no significant loss of antimicrobial activity
- release kinetics after storage [4]: no difference in the release kinetics
